# Key:
# MPO heme ring [1] = test: Spectral analysis of MPO heme ring with bleach (NaOCl); conditions: 2 μM MPO, 2.5 mM PIC1, bleach 1:1000, n = 2
# Description: (§1) As each component is added to the MPO it is allowed to incubate for 5 minutes. […] Absorbance values were recorded from 300–550 nm.
# purified MPO [2] = test: Purified MPO oxidation of ABTS; assay type: biochemical; conditions: PIC1 0.5–0.9 mM
# Description: (§2) MPO peroxidase activity utilizing pure MPO was assayed by combing the MPO solution, diluted to 160 nM with PBS buffer, with an inhibitor, at denoted concentrations, in a 1:1 ratio (v/v) for 1 min. prior to adding TMB.
# (§3) To measure MPO peroxidase activity using TMB, 20 μl of assay supernatant, CF sol, or neutrophil lysate was serially diluted and then combined with 100 μl of TMB in a non-treated 96-well plate followed by 100 μl of 2.5 N H2SO4 (stop buffer) and absorbance was read at 450 nm. For MPO functional assays using ABTS, 150 μl of ABTS solution was added to each sample and incubated for 5 minutes before adding 100 μl of 1% SDS to stop the reaction. Absorbance was read at 405 nm. O-dianisidine working solution was prepared by making a 0.166 mg/ml solution in 50 mM phosphate-citrate buffer, pH 5.0 with a final of 0.006% H2O2 added immediately before use. For MPO measurements, 100 μl of the prepared O-dianisidine solution was added to each sample and incubated for 2 minutes before adding 100 μl of 2.5 N H2SO4 to stop the reaction. Absorbance was read at 405 nm.
# MPO in neutrophil lysate = test: MPO peroxidase activity (TMB) in neutrophil lysate; assay type: biochemical; conditions: 0.9 mM PIC1 vs no PIC1, n = 4, P < 0.001
# Description: Neutrophils from the blood of healthy volunteers were purified from heparinized blood by Hypaque-Ficoll step gradient centrifugation, dextran sedimentation, and hypotonic lysis, as previously described. Neutrophils were adjusted to 1×10^7 cells/ml for the functional studies. Neutrophils were sedimented, lysed in 1% Triton X-100, and 1×10^6 cell/ml equivalent aliquots were used for neutrophil lysate assays.
# as §2
# as §3, with “For MPO measurements, 100 μl of the prepared O-dianisidine solution was added to each sample and incubated for 2 minutes before adding 100 μl of 2.5 N H2SO4 to stop the reaction.” left out
# MPO in CF sputum sol [3] = test: PIC1 dose-response on MPO activity (TMB) in CF sputum sol #2m; assay type: biochemical
# Description: as §3
# MPO in CF sputum sol [4] = test: MPO peroxidase activity (TMB) in CF sputum sol ± neutrophils (PMN), heat-killed P. aeruginosa or heat-aggregated IgG; assay type: biochemical; conditions: CF sol only, + killed P. aeruginosa, + Agg IgG
# Description: To these samples were added 1×10^6 neutrophils for 1 hour at 37°C. These samples were then analyzed for MPO peroxidase activity by TMB assay, described below.
# as §3
# MPO heme ring [5] = test: Spectral analysis of MPO heme ring with H2O2; conditions: 2.5 mM PIC1, 200 μM H2O2
# Description: as §1
# MPO in CF sputum sols = test: MPO peroxidase activity (TMB) in 14 clinical CF sputum sols; assay type: biochemical
# Description: Expectorated sputum samples were collected in sterile containers and immediately placed on ice. The soluble fraction (sol) was extracted as a supernatant of free flowing liquid after cold (4°C) centrifugation at 14,000 g for 60 minutes, similar to previously described methods. Due to the normal differences in CF sputum viscosity, sol fractions were not normalized for protein content consistent with previously described methods.
# as §3
# MPO in CF sol = test: pH effect on MPO peroxidase activity (TMB) in CF sol; assay type: biochemical; conditions: PIC1 7.5 mM (pH 4.7) vs sol acidified to pH 4.0
# Description: Assays of pH effect on MPO peroxidase activity in CF sols was performed by adjusting one representative CF sol, initially at a pH of 7.0, to pH values of 6.0, 5.0, and 4.0 using H2SO4. […] TMB was added after 5 minutes.
# as §3
# [6] = Anti-oxidant assay: TMB oxidized by solid-phase MPO, transferred to uncoated well; assay type: biochemical; conditions: absorbance 450 nm, n = 4, P = 0.02
# Description: Pure MPO was coated onto an Immunlon-2 96 well plate at 24 μg/ml in carbonate buffer overnight at 4°C. The plate was washed to remove unbound protein with PBS and 0.05% Tween, and then 100 μl of TMB was added. […] After 1 minute, 100 μl of 2.5 N H2SO4 was added to stop the reaction and absorbance was read at 450 nm.
# purified MPO [7] = test: Purified MPO oxidation of O-dianisidine; assay type: biochemical; conditions: PIC1 0.5–0.9 mM
# Description: as §2, §3
# MPO = test: Ferrozine assay of Fe release from MPO in the presence of bleach; conditions: 2 μM MPO, 2.5 mM PIC1, bleach 1:1000; 562 nm
# Description: Iron release from MPO was measured utilizing a ferrozine assay. After the absorbance spectra was recorded, 100 μl of ascorbic acid (100 mM) was added to each sample and allowed to incubate for 5 minutes. Then 50 μl of ammonium acetate (16%) and 50 μl of ferrozine (16 mM) were added to the samples and mixed. After incubating for 5 minutes, absorbance was measured at 562 nm. A standard curve was prepared using ammonium Fe(III) sulfate and a linear regression was used to calculate the free iron concentration.
# purified MPO [8] = test: Purified MPO oxidation of TMB; assay type: biochemical
# Description: as §2, §3
# [9] = Reversal/inhibition of TMB oxidation, PIC1 added before TMB or after TMB incubated with MPO; assay type: biochemical; conditions: PIC1 added after MPO and TMB had incubated
# Description: We then tested whether PIC1 could reverse the oxidized state of TMB after incubation with MPO.
# [10] = cited from earlier work
# Text: Evidence from previous investigators implicate MPO as a major contributor to CF lung damage, which is consistent with MPO being the most prevalent peroxidase in neutrophils and the clear role of neutrophils mediating lung destruction in CF.
# purified MPO [11] = test: Dose-response inhibition of pure MPO at various MPO concentrations; assay type: biochemical
# Description: as §3
# C1q = conditions: cited from earlier work
# complement activation = conditions: cited from earlier work
# Text: DMSO as a diluent decreas ...
substance,measurement,setting,value
IALILEPICCQERAA-dPEG24 [PIC1],protection of MPO from bleach,MPO heme ring [1],largely protected from the oxidative effects of bleach
same,inhibition of purified MPO oxidation of ABTS,purified MPO [2],dramatically inhibited
same,inhibition of MPO activity,MPO in neutrophil lysate,12.5 fold
same,reduction in MPO activity,"MPO in CF sputum sol [3]; 7.5 mM PIC1 vs no PIC1, n = 3, P = 0.001",11.5 fold
same,inhibition of MPO activity,MPO in CF sputum sol [3]; PIC1 titration,dose-dependent inhibition of MPO activity
same,MPO oxidation of TMB,MPO in CF sputum sol [4],dramatically inhibited MPO oxidation of TMB in all conditions
same,heme ring protection,MPO heme ring [5],able to inhibit oxidative damage to the heme ring and alteration of the iron charge state
same,median MPO activity after PIC1,"MPO in CF sputum sols; 7.5 mM PIC1, 14 CF sputum samples, as number of neutrophils lysed to yield equivalent TMB oxidation, baseline median 94.0, P = 0.02",27.9
same,decrease in median MPO activity,"MPO in CF sputum sols; 7.5 mM PIC1, 14 CF sputum samples, vs baseline, P = 0.02",3.4 fold
same,change in MPO activity,"MPO in CF sputum sols; 7.5 mM PIC1, each of 14 samples",decrease in MPO activity
same,MPO-postPIC1 median,"MPO in CF sputum sols; PIC1 7.5 mM, 14 samples, MPO-pre median 93.975",27.935 x 10E6
same,MPO-postPIC1,"MPO in CF sputum sols; PIC1 7.5 mM, sample 1e, MPO-pre 117.41",30.1 x 10E6
same,MPO-postPIC1,"MPO in CF sputum sols; PIC1 7.5 mM, sample 2j, MPO-pre 17.29",0 x 10E6
same,MPO-postPIC1,"MPO in CF sputum sols; PIC1 7.5 mM, sample 2m, MPO-pre 158.85",43.21 x 10E6
same,MPO-postPIC1,"MPO in CF sputum sols; PIC1 7.5 mM, sample 3i, MPO-pre 1117.64",493.15 x 10E6
same,MPO-postPIC1,"MPO in CF sputum sols; PIC1 7.5 mM, sample 4a, MPO-pre 7.9",0 x 10E6
same,MPO-postPIC1,"MPO in CF sputum sols; PIC1 7.5 mM, sample 5e, MPO-pre 305.93",173.21 x 10E6
same,MPO-postPIC1,"MPO in CF sputum sols; PIC1 7.5 mM, sample 10g, MPO-pre 71.54",19.09 x 10E6
same,MPO-postPIC1,"MPO in CF sputum sols; PIC1 7.5 mM, sample 15e, MPO-pre 55.77",12.92 x 10E6
same,MPO-postPIC1,"MPO in CF sputum sols; PIC1 7.5 mM, sample 17c, MPO-pre 77.44",25.77 x 10E6
same,MPO-postPIC1,"MPO in CF sputum sols; PIC1 7.5 mM, sample 28a, MPO-pre 325.09",297.05 x 10E6
same,MPO-postPIC1,"MPO in CF sputum sols; PIC1 7.5 mM, sample 29e, MPO-pre 110.51",43.24 x 10E6
same,MPO-postPIC1,"MPO in CF sputum sols; PIC1 7.5 mM, sample 34j, MPO-pre 68.92",16.55 x 10E6
same,MPO-postPIC1,"MPO in CF sputum sols; PIC1 7.5 mM, sample 1d, MPO-pre 229",214.65 x 10E6
same,MPO-postPIC1,"MPO in CF sputum sols; PIC1 7.5 mM, sample 9d, MPO-pre 34.41",0 x 10E6
same,role of acidification in MPO inhibition,MPO in CF sol,not mediated by acidification of the sol
same,reduction in oxidized TMB,[6],20 fold
same,inhibition of purified MPO oxidation of O-dianisidine,purified MPO [7],dramatically inhibited
same,bleach-mediated iron release from MPO,MPO,able to prevent bleach-mediated release of iron from MPO
same,inhibition of purified MPO oxidation of TMB,"purified MPO [8]; 0.9 mM PIC1, MPO 80 nM, n = 3, P < 0.001",28 fold
same,improvement in MPO inhibition compared with ABAH,"purified MPO [8]; 0.9 mM, TMB, P = 0.002",7 fold
same,reversal of TMB oxidation,[9],the color change was reversed and the absorbance value was minimal
same,aqueous solubility,[10],excellent aqueous solubility
same,tolerability in vivo,[10],well tolerated in vivo
same,inhibition of MPO peroxidase activity,"purified MPO [11]; 0.5 mM PIC1, 20 μM MPO, P < 0.001",5.4 fold
same,inhibition of MPO peroxidase activity,purified MPO [11]; MPO concentrations up to 80 μM,Concentration dependent PIC1 inhibition of MPO peroxidase activity
same,C1 enzymatic activation,C1q,inhibits enzymatic activation
same,C1q binding affinity,C1q; similar to C1r-C1s-C1s-C1r tetramer,nanomolar affinity
same,P. aeruginosa-initiated complement activation,complement activation; CF sputum sols,can inhibit P. aeruginosa-initiated complement activation
same,C5a generation,complement activation; CF sputum soluble fraction,can inhibit P. aeruginosa-mediated generation of the pro-inflammatory anaphylatoxin C5a

# Source: PMC5279725 (PLoS ONE, 2017)
